Where two headings read alike, the source gives them in different places.
Columns and labels:
[1] = adult patients with traumatic cardiac arrest, prehospital administration; cited from earlier work
[2] = cited from earlier work
[3] = Pharmacokinetics of TXA in swine plasma after IV and IM administration; assay type: in vivo, domestic pigs; conditions: for Cmax: read-out: Cmax range; for duration of effective plasma concentration (FIG. 13): effective level about 10 to about 15 ug/ml; for time effective TXA levels are maintained (FIG. 13 legend): target about 15 ug/mL
Procedure: Studies of pharmacokinetics (PK) and pharmacodynamics (PD) of TXA were performed in swine conducted in compliance with Good Laboratory Practice (GLP) standards. All facilities and activities were accredited in accordance with GLP and ISO9001 (2015).
Eighteen domestic pigs were assigned to four test groups. Group 1: Control, IM administered with vehicle (0.9% NaCl, pH 3-4, w/v), two animals were administered 2 mL vehicle, one animal administered 4 mL vehicle.
IM injections were performed using an auto-injector. […] PK analysis was noncompartmental. Following sacrifice, animals were subjected to a full detailed necropsy and histopathological evaluation performed on injection sites and major organs.
Additional blood samples were collected for Complete Blood Count (CBC), biochemistry profile and prothrombin time/partial thromboplastin time (PT/PTT) at baseline, 1, 3, and 72 hr post dosing. For thromboelastographic (TEG) analysis blood was collected at base line, 1, 3 and 6 hr post dosing. The study was conducted over 5 separate dosing sessions. For each session the animals were acclimatized for at least 4 days prior to Central Venous Catheter (CVCs) placement procedure. All animals were sacrificed 72 hours post treatment and were subjected to a full gross necropsy. Organ samples and injection sites were collected for histopathological analysis.
Pharmacokinetic and bioanalytical analysis of Tranexamic acid, based on plasma samples, was performed. On the date of analysis, plasma samples were thawed at room temperature, along with calibration and QC samples. 50 μL of plasma were taken for analysis. Tranexamic acid and its internal standard were separated from pig plasma by protein precipitation. The samples were analyzed by a validated high-performance liquid chromatography-mass spectrometry/mass spectrometry (HPLC-MS/MS) method, using Hilic Silica 3 μm column with an electro-spray interface, in a positive ion mode.

[4] = bleeding trauma patients, cited from earlier work
fibrinolysis = conditions: in vitro and in vivo pharmacodynamics studies (Picetti et al., 2019); cited from earlier work

SMILES: CNC[C@H](O)c1ccc(O)c(O)c1 [epinephrine]
- short-term survival [1]: increased short-term survival

SMILES: OCc1ccccc1 [benzyl alcohol]
- cutaneous anesthesia ([2]; intradermal 1 ml 0.9% benzyl alcohol with epinephrine): prolonged cutaneous anesthesia
- pain on injection ([2]; versus lidocaine with epinephrine): significantly less painful on injection

SMILES: NC[C@H]1CC[C@H](C(=O)O)CC1 [TXA, trans-4-(aminomethyl) cyclohexanecarboxylic acid]
- AUC(0-inf) ([3]; pig, plasma, im, 1 g, swine Group 3: 1 g TXA IM, n=5, read-out: AUCINF_pred range): 81500 to 90300 ng·h/mL
- Tmax ([3]; pig, plasma, im, 1 g, swine Group 3: 1 g TXA IM, n=5, read-out: Tmax range): 15 to 120 min
- AUC(0-inf) ([3]; pig, plasma, im, 1 g, swine Group 3: 1 g TXA IM, n=5, read-out: mean AUCINF_pred (converted)): 84800 ng·h/mL
- Tmax ([3]; pig, plasma, im, 1 g, swine Group 3: 1 g TXA IM, read-out: mean Tmax (converted)): 44 min
- Cmax ([3]; pig, plasma, im, 1 g): 20100 to 34800 ng/mL
- AUC(0-inf) ([3]; pig, plasma, im, 2 g, swine Group 4: 2 g TXA IM, n=5, read-out: AUCINF_pred range): 134000 to 148000 ng·h/mL
- Tmax ([3]; pig, plasma, im, 2 g, swine Group 4: 2 g TXA IM, n=5, read-out: Tmax range): 30 to 60 min
- AUC(0-inf) ([3]; pig, plasma, im, 2 g, swine Group 4: 2 g TXA IM, n=5, read-out: mean AUCINF_pred (converted)): 141000 ng·h/mL
- Tmax ([3]; pig, plasma, im, 2 g, swine Group 4: 2 g TXA IM, read-out: mean Tmax (converted)): 41.8 min
- Cmax ([3]; pig, plasma, im, 2 g): 35700 to 47000 ng/mL
- bioavailability ([3]; pig, plasma, intramuscular, 1 g): > 100%
- Tmax ([3]; pig, plasma, iv, 1 g, swine Group 2: 1 g TXA IV, n=5, read-out: Tmax range): 11 to 12 min
- AUC(0-inf) ([3]; pig, plasma, iv, 1 g, swine Group 2: 1 g TXA IV, n=5, read-out: mean AUCINF_pred (converted)): 74000 ng·h/mL
- Tmax ([3]; pig, plasma, iv, 1 g, swine Group 2: 1 g TXA IV, read-out: mean Tmax (converted)): 11.2 min
- Cmax ([3]; pig, plasma, iv, 1 g): 40900 to 78500 ng/mL
- mean peak plasma concentration (mean concentration-time curve, FIG. 9) ([3]; swine Group 2, n=5: 1 g TXA IV, 10 mL of 100 mg/mL TRANEX injection pH 6.5-8 over 10 min): 64 µg/mL
- time of mean peak plasma concentration ([3]; swine Group 2: 1 g TXA IV, time from end of 10 min IV injection): 1 min
- mean peak plasma concentration (mean concentration-time curve, FIG. 9) ([3]; swine Group 3, n=5: 1 g TXA IM, 2 mL of 500 mg/mL formulation A pH 3-4): 24.2 µg/mL
- time of mean peak plasma concentration ([3]; swine Group 3: 1 g TXA IM, post dosing): ≤ 20 min
- mean peak plasma concentration (mean concentration-time curve, FIG. 9) ([3]; swine Group 4, n=5: 2 g TXA IM, 4 mL of 500 mg/mL formulation A pH 3-4): 41 µg/mL
- time of mean peak plasma concentration ([3]; swine Group 4: 2 g TXA IM, post dosing): ≤ 45 min
- duration of effective plasma concentration (FIG. 13) ([3]; swine, 1 g IM TXA): about 130 minutes
- duration of effective plasma concentration (FIG. 13) ([3]; swine, 1 g IV TXA): about 80 minutes
- dose proportionality ([3]; swine, 1 g versus 2 g IM): exhibits dose proportionality
- duration of effective plasma concentration (FIG. 13) ([3]; swine, 2 g IM TXA): about 200 minutes
- time effective TXA levels are maintained (FIG. 13 legend) ([3]; swine, IM administration): > 130 min
- time effective TXA levels are maintained (FIG. 13 legend) ([3]; swine, IV administration): < 105 min
- bioavailability of IM TXA ([4]; 1 gram IM as two 5 ml (0.5 g each) injections): 77%
- tolerability of IM injections ([4]; 1 gram IM as two 5 ml injections): well-tolerated
- time to therapeutic plasma concentrations ([4]; after IM injection of 1 gram): ≤ 15 min
- TXA concentration in blood or plasma giving substantial inhibition of fibrinolysis (fibrinolysis): 10 to 15 µg/mL

Source: patent US12636249B2, “Concentrated injectable tranexamic acid compositions and methods of use thereof” (Galen Limited, priority 2022, dated 2026)
